The results in this text go back to patent US11384071B2, “Inhibitors of mechanotransduction to treat pain and modulate touch perception” (Max-Delbrück-Centrum für Molekulare Medizin in der …, priority 2016, dated 2022).

In the assay the test system is mice with chronic constriction injury. Briefly: Chronic constriction injury (CCI) model, paw withdrawal thresholds to von Frey filaments. The assay is classed as in vivo, mouse. The note with it: CCI, systemic treatment. An excerpt: In deeply anaesthetized mice using isoflurane delivered in 100% 02 (Univentor 410 Anaesthesia unit; Univentor, Malta), four loose silk (5/0; Catgut GmbH Markneukirchen) ligatures were placed around the sciatic nerve at the level of the right mid-thigh as described previously (Wetzel et al., 2007).
Mice were allowed to habituate to the testing apparatus (acrylic chambers 10×10 cm in size, suspended above a wired mesh grid) one hour prior to behavioral testing. Only once the subject was at rest and not moving, calibrated von-Frey hair monofilaments (Aesthesio® set of 20 monofilaments, Ugo Basil) were applied to the plantar surface of the hind paw in order to deliver target forces from 0.008 grams to 4 grams increasing in an approximately logarithmic scale. A single stimulus indicated by a slight bending of the filament lasted for two seconds unless the mouse withdrew its paw. In order to measure mechanosensitivity the up-and-down method described by Chaplan^13 was adapted as follows: Testing began with a filament delivering a target force of 0.4 g, but filaments were applied three times. A positive response was noted if the subject withdrew the paw to all three filament applications, so that the successively smaller filament was presented next. […] Paw withdrawal thresholds were calculated as median of 23 to 30 determined turning points of the particular force stimuli applied to the subject.
Drug injections of OB-1 or DMSO alone were dissolved in Ringer's solution (in mM: 135 NaCl, 5 KCl, 5 HEPES, 1.8 CaCl2), 1 MgCl2) to make the OB-1 and vehicle solution. Injections were made 3 hours prior to behavioral testing, approximately 20 μl solution, 250 pmol per paw, was injected into the palm with a Hamilton syringe, gauge 33. During the injection procedure, the mouse was anaesthetized with isoflurane (1.5 to 2.5% in 02). The injection procedure lasted around 3 minutes after which the mouse was moved to the home cage for recovery before behavioral testing.
We next interrogated whether local application of OB-1 can ameliorate tactile-evoked pain behavior in neuropathic models. […] We decided to test this idea more directly by testing the effects of local OB-1 on the mechanical sensitivity of Stoml3^−/− mice with CCI. […] Off-target effects are an issue for any biologically active small molecule. We therefore tested the effects of 20 μM OB-1 in a commercially available in vitro pharmacology panel (www.cerep.fr) consisting of 79 receptors and ion channels.

Turning to `NCC1(CC(=O)O)CCCCC1` [gabapentin, reference compound], the tactile allodynia entry is “reversal of tactile allodynia”.
